Reference: ChEMBL document CHEMBL5726547, “Substituted quinazolines as receptor-type kinase inhibitors” (2017)

Biological target: Vascular endothelial growth factor receptor 1 (Homo sapiens, UniProt P17948)
Assay: AlphaScreen Assay: In AlphaScreen, when the donor and acceptor beads are close in proximity, a series of photochemical events will give rise to a fluorescent signal upon light activation. Here we use biotinylated poly-(Glu, Tyr) 4:1 as the kinase substrate, streptavidin-coated donor beads and anti-phosphortyrosine antibody PY100-coated acceptor beads. Upon phosphorylation, the peptide substrate …

Vascular endothelial growth factor receptor 1, sequence (P17948 whole entry): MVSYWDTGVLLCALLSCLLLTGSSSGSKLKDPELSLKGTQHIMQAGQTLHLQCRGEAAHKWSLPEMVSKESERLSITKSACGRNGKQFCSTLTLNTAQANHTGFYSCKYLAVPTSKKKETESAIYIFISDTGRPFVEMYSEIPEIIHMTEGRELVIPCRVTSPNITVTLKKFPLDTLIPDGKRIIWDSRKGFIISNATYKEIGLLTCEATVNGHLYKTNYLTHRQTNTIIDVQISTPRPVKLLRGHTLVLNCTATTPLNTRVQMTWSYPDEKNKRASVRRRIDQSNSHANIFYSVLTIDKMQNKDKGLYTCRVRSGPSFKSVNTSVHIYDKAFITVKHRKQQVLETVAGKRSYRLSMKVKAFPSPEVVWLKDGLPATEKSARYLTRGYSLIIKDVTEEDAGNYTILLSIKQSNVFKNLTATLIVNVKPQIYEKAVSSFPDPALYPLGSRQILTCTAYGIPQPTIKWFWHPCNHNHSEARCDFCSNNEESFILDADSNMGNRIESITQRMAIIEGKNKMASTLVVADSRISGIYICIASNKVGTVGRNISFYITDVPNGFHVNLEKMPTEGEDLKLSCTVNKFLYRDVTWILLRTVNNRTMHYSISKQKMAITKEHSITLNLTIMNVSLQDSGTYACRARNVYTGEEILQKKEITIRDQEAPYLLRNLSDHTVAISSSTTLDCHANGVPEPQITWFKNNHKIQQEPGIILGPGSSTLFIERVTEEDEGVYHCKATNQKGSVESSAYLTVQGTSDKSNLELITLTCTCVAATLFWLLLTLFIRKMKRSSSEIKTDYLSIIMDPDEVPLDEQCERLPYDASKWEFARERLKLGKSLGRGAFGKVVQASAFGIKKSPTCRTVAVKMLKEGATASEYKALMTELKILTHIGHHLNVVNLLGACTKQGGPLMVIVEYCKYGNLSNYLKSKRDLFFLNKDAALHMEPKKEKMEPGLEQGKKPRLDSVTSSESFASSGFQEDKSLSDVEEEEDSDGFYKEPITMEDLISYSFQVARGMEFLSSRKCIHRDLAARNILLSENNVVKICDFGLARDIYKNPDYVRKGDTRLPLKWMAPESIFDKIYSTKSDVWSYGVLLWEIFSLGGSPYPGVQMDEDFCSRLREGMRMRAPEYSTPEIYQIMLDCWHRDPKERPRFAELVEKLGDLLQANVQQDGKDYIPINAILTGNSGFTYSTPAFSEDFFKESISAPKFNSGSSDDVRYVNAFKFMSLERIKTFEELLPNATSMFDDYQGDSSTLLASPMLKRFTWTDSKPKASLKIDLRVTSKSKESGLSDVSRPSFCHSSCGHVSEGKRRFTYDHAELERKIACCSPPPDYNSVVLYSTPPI

IC50 [nM]	SMILES
50 to 1000	COc1cc2c(Nc3cc(Cl)c(Br)cc3F)ncnc2cc1OC[C@H]1CN2CCOCC2CO1 (stereo not given in full)
50 to 1000	COc1cc2c(Nc3cc(Cl)c(Br)cc3F)ncnc2cc1OC[C@@H]1CN2CCOCC2CO1 (stereo not given in full)
50 to 1000	COc1cc2c(Nc3ccc(F)c(Cl)c3F)ncnc2cc1OC[C@H]1CN2CCOCC2CO1 (stereo not given in full)
50 to 1000	COc1cc2c(Nc3cc(Cl)c(Cl)cc3F)ncnc2cc1OC[C@@H]1CN2CCOCC2CO1 (stereo not given in full)
50 to 1000	COc1cc2c(Nc3ccc(Br)c(Cl)c3F)ncnc2cc1OC[C@H]1CN2CCOCC2CO1 (stereo not given in full)
50 to 1000	COc1cc2c(Nc3cc(Cl)c(Cl)cc3F)ncnc2cc1OC[C@H]1CN2CCOCC2CO1 (stereo not given in full)
50 to 1000	COc1cc2c(Nc3ccc(Cl)c(Cl)c3F)ncnc2cc1OC[C@H]1CN2CCOCC2CO1 (stereo not given in full)
1000 to 20000	COc1cc2c(Nc3ccc(F)c(Cl)c3F)ncnc2cc1O[C@H]1CO[C@H]2[C@@H]1OC[C@@H]2OC
50 to 1000	COc1cc2c(Nc3ccc(Cl)c(Cl)c3F)ncnc2cc1OC[C@H]1C[C@@H]2CN(C)C[C@@H]2C1
50 to 1000	COc1cc2c(Nc3ccc(F)c(Cl)c3F)ncnc2cc1OC[C@@H]1CN2CCOCC2CO1 (stereo not given in full)
